# According to ChEMBL document CHEMBL6078725, “Discovery of novel xanthohumol C derivatives regulating XRCC2 transcription and expression for the treatment of colorectal cancer” (Bioorg Med Chem, 2025):
# pIC50: −log10 of the molar value. Activity calls are given as the source filed them. The calls are words filed in the database; no cut-off is given here.
# Key:
# RKO = assay: Antiproliferative activity against human RKO cells incubated for 48 hrs by MTS assay; type: functional, cell-based
# HCT-116 [1] = assay: Antiproliferative activity against human HCT-116 cells incubated for 48 hrs by MTS assay; type: functional, cell-based; conditions: HCT-116, 48 h
# HCT-116 [2] = assay: Antitumor activity against human HCT-116 cells xenografted in BALB/c mouse assessed as inhibition of tumor growth at 20 mg/kg, ip administered for 2 weeks; type: functional, organism-based
Structure (SMILES),pIC50 (RKO),pIC50 (HCT-116 [1]),Activity (HCT-116 [2])
COc1cc2c(c(OC)c1C(=O)/C=C/c1ccc(Cl)cc1)C=CC(C)(C)O2,5.04,< 4.89,
O=c1[nH]cc(F)c(=O)[nH]1,,,Active
COc1cc(/C=C/C(=O)c2c(OC)cc3c(c2O)C=CC(C)(C)O3)cc(OC)c1,4.60,4.60,
CCOc1ccc(Br)cc1/C=C/C(=O)c1c(OC)cc2c(c1O)C=CC(C)(C)O2,3.78,3.93,
COc1cc2c(c(O)c1C(=O)/C=C/c1ccc3[nH]ccc3c1)C=CC(C)(C)O2,4.72,< 4.65,
COc1cc2c(c(O)c1C(=O)/C=C/c1ccc(N3CCN(C)CC3)cc1)C=CC(C)(C)O2,4.87,4.90,
COc1cc2c(c(O)c1C(=O)/C=C/c1cccc(N3CCN(C)CC3)c1)C=CC(C)(C)O2,3.89,4.90,
COc1ccc(/C=C/C(=O)c2c(OC)cc3c(c2O)C=CC(C)(C)O3)c(OC)c1OC,4.64,4.58,
COc1ccc(/C=C/C(=O)c2c(OC)cc3c(c2O)C=CC(C)(C)O3)cc1Br,4.45,4.35,
COc1cc(/C=C/C(=O)c2c(OC)cc3c(c2O)C=CC(C)(C)O3)cc(OC)c1OC,4.67,4.59,
COc1cc2c(c(O)c1C(=O)/C=C/c1ccc(N(C)C)cc1)C=CC(C)(C)O2,3.93,< 3.70,
COc1cc2c(c(OC)c1C(=O)/C=C/c1ccccc1)C=CC(C)(C)O2,4.69,4.64,
COc1cc(O)ccc1/C=C/C(=O)c1c(OC)cc2c(c1O)C=CC(C)(C)O2,4.55,4.49,
COc1cc2c(c(O)c1C(=O)/C=C/c1cn(C)c3ccccc13)C=CC(C)(C)O2,< 3.70,< 3.70,
COc1cc2c(c(O)c1C(=O)/C=C/c1cccc(C(C)(C)C)c1)C=CC(C)(C)O2,4.05,4.13,
COc1cc2c(c(O)c1C(=O)/C=C/c1ccc(N3CCCC3)cc1)C=CC(C)(C)O2,< 3.70,< 3.70,
COc1cc2c(c(O)c1C(=O)/C=C/c1cccc(Br)c1)C=CC(C)(C)O2,4.45,4.44,
COc1cc2c(c(O)c1C(=O)/C=C/c1ccc(C(F)(F)F)cc1)C=CC(C)(C)O2,4.60,4.58,
